For data set [1] the following is noted: aqueous media, cited from earlier work.
The subject of data set [2] is A549 (non-small cell lung cancer). Put plainly: Anticancer activity, inhibition of cell proliferation, A549 (NSCLC). The data set is classed as cell-based. The conditions noted are these: Homo sapiens. As for the experimental part:
(§1) Compounds SB-T-101131, SB-T-101133, SB-T-101134, SB-T-10114, SB-T-101141, SB-T-101142, SB-T-101143, SB-T-101144, SB-T-101146, SB-T-101151 and SB-T-101161 were prepared according to the protocols described in Examples 59 and 60 above. These compounds were evaluated for cancer activity against human cancer cell lines of A121 (ovarian cancer), A549 (non-small cell lung cancer), HT-29 (colon cancer), MCF7 (breast cancer), and MCF7-R (adriamycin resistant breast cancer). Table 1 below illustrates the activity of these compounds as IC50 values in a nM concentration.
(§2) […] ACTIVITY OF NEW TAXANES (IC50 nM).
(§3) ^a IC50 represents the concentration that inhibits 50% of cell
(§4) proliferation. ^b MCF7R = mammary carcinoma cells 180 fold resistant
(§5) The cytotoxicities of the new taxanes shown in FIG. 1 hereto and listed in Table 1 were evaluated in vitro against human cancer cell lines according to methods more particularly described in Ojima, I., et al., "Structure--Activity Relationships of New Taxoids Derived from 14β-Hydroxy-10-Deacetyl/Baccatin III," Journal of Medicinal Chemistry, 37, 1408-1410 (1994) and Ojima, I., et al., "Synthesis and Biological Activity of 14-hydroxydocetaxel," Bioorganic and Medicinal Chemistry Letters, 4, 1571-1576 (1994) the contents of which are incorporated herein by reference as if set forth in full.

The next data set deals with different cancers. The conditions noted are these: background statement; cited from earlier work.
For data set [3] the following is noted: compared with Taxol; listed as Taxotere; cited from earlier work.
The next data set relates to A121 (ovarian cancer). As to the kind of experiment: Anticancer activity, inhibition of cell proliferation, A121 (ovarian). The conditions noted are these: Homo sapiens. The format is cell-based. Here is the method:
as §1, §2, §3, §4, §5

The conditions of data set [4]: clinical trials; cited from earlier work.
In another data set the test system is MCF7 (breast cancer). As to the kind of experiment: Anticancer activity, inhibition of cell proliferation, MCF7 (breast). The data set is classed as cell-based. The conditions noted are these: Homo sapiens. As for the experimental part:
as §1, §2, §3, §4, §5

A further data set concerns HT-29 (colon cancer). As to the kind of experiment: Anticancer activity, inhibition of cell proliferation, HT-29 (colon). The data set is classed as cell-based. Particulars: Homo sapiens. Here is the method: as §1, §2, §3, §4, §5
The test system of data set [5] is MCF7-R (adriamycin resistant breast cancer). As to the kind of experiment: Anticancer activity, inhibition of cell proliferation, MCF7-R (adriamycin resistant breast). The data set is classed as cell-based. The conditions noted are these: Homo sapiens, MCF7R, read-out: IC50, MCF7-R. Here is the method: Compounds SB-T-101131, SB-T-101133, SB-T-101134, SB-T-10114, SB-T-101141, SB-T-101142, SB-T-101143, SB-T-101144, SB-T-101146, SB-T-101151 and SB-T-101161 were prepared according to the protocols described in Examples 59 and 60 above. These compounds were evaluated for cancer activity against human cancer cell lines of A121 (ovarian cancer), A549 (non-small cell lung cancer), HT-29 (colon cancer), MCF7 (breast cancer), and MCF7-R (adriamycin resistant breast cancer).
as §3, §4, §5

The mark [6] stands for this setting: concentration that inhibits 50% of cell proliferation, A549 (NSCLC), read-out: IC50, A549 (NSCLC).
The mark [7] stands for this setting: concentration that inhibits 50% of cell proliferation, A121 (ovarian), read-out: IC50, A121 (ovarian).
The mark [8] stands for this setting: concentration that inhibits 50% of cell proliferation, MCF7 (breast), read-out: IC50, MCF7 (breast).
Setting [9] is: concentration that inhibits 50% of cell proliferation, HT-29 (colon), read-out: IC50, HT-29 (colon).
[10] abbreviates: concentration that inhibits 50% of cell proliferation, mammary carcinoma cells 180 fold resistant to adriamycin.

Molecules are shown by their SMILES. Entries after “also recorded” stand apart in the source; their conditions may differ. Like-named read-outs stand apart in the source and are kept apart here.

One may read the IC50 as the midpoint of a concentration-inhibition curve.

For the compound `CC(=O)O[C@@]12CO[C@@H]1C[C@H](O)[C@@]1(C)C(=O)[C@H](O)C3=C(C)[C@@H](O)[C@H](O)[C@@](O)([C@@H](OC(=O)c4ccccc4)[C@H]21)C3(C)C` [14-OH-DAB, 14-Hydroxy-10-deacetylbaccatin III], the water solubility result in [1] is “much higher water solubility than the usual 10-deacetylbaccatin III”.

Take `CC(=O)O[C@@]12CO[C@@H]1C[C@H](O)[C@@]1(C)C(=O)[C@H](O)C3=C(C)[C@@H](OC(=O)[C@H](O)[C@@H](NC(=O)OC(C)(C)C)c4ccccc4)C[C@@](O)([C@@H](OC(=O)c4ccccc4)[C@H]21)C3(C)C` [Docetaxel]: the IC50 is 1 nM in data set [2] (setting [6]), 1.2 nM in the data set on A121 (ovarian cancer) (setting [7]), 1 nM in the data set with MCF7 (breast cancer) (setting [8]) and 1.2 nM in the data set on HT-29 (colon cancer) (setting [9]). Also, the “cytotoxicity and antitumor activity” value in the data set on different cancers is “antitumor activity superior to Taxol”. Further, the “bioavailability / pharmacological properties” value in data set [3] is reported as “better pharmacological properties than Taxol; also recorded: better bioavailability”. Besides, in data set [1], the water solubility entry is “somewhat improved water solubility”. Moreover, the side effects result in data set [4] was “mouth sores and a plunge in white blood cell count”.

As for `CC(=O)O[C@H]1C(=O)[C@@]2(C)[C@H]([C@H](OC(=O)c3ccccc3)[C@]3(O)C[C@H](OC(=O)[C@H](O)[C@@H](NC(=O)c4ccccc4)c4ccccc4)C(C)=C1C3(C)C)[C@]1(OC(C)=O)CO[C@@H]1C[C@@H]2O` [Paclitaxel, reference compound], the IC50 was determined as 3.6 nM in data set [2] (setting [6]); 300 nM in data set [5] (setting [10]); 6.1 nM in the data set with A121 (ovarian cancer) (setting [7]); 1.7 nM in the data set with MCF7 (breast cancer) (setting [8]); 3.2 nM with HT-29 (colon cancer) (setting [9]). In the data set with different cancers, the “cytotoxicity and antitumor activity” value was “high cytotoxicity and strong antitumor activity”. Besides, in data set [1] (listed as Taxol), the water solubility result is on record as “limited solubility in aqueous media; also recorded: poor water solubility”. The side effects entry in [4] is on record as “nerve damage, muscle pain or disturbances in heart rhythm”.

As for `CC(=O)OC12COC1CC(O)C1(C)C(=O)C(O)C3=C(C)C(OC(=O)C(O)C(C=C(C)C)NC(=O)OC(C)(C)C)C4OC(=O)OC4(C(OC(=O)c4ccccc4)C21)C3(C)C` (stereo not drawn) [SB-T-10114], the IC50 was 0.2 nM in [2] (setting [6]); 54 nM in data set [5] (setting [10]); 1.7 nM in the data set on A121 (ovarian cancer) (setting [7]); 0.5 nM with MCF7 (breast cancer) (setting [8]); 0.5 nM in the data set on HT-29 (colon cancer) (setting [9]).

With `CC(=O)O[C@H]1C(=O)[C@@]2(C)[C@H]([C@H](OC(=O)c3ccccc3)[C@]34OC(=O)O[C@H]3[C@H](OC(=O)[C@H](O)[C@H](CC(C)C)NC(=O)OC(C)(C)C)C(C)=C1C4(C)C)[C@]1(OC(C)=O)CO[C@@H]1C[C@@H]2O` [SB-T-101131], the IC50 in data set [2] (setting [6]) is 0.7 nM; in data set [5] (setting [10]), 36 nM; with A121 (ovarian cancer) (setting [7]) it was 1.2 nM; in the data set on MCF7 (breast cancer) (setting [8]), 1.1 nM; in the data set on HT-29 (colon cancer) (setting [9]), 1.5 nM.

As for `CC(=O)OC12COC1CC(O)C1(C)C(=O)C(OC(=O)C3CC3)C3=C(C)C(OC(=O)C(O)C(CC(C)C)NC(=O)OC(C)(C)C)C4OC(=O)OC4(C(OC(=O)c4ccccc4)C21)C3(C)C` (stereo not drawn) [SB-T-101133], the IC50 in data set [2] (setting [6]) came out at 1.2 nM; in [5] (setting [10]), 22 nM; in the data set with A121 (ovarian cancer) (setting [7]), 1.1 nM; with MCF7 (breast cancer) (setting [8]), 0.7 nM; in the data set with HT-29 (colon cancer) (setting [9]) it was 3.3 nM.

For `CC(=O)OC12COC1CC(O)C1(C)C(=O)C(OC(=O)N(C)C)C3=C(C)C(OC(=O)C(O)C(CC(C)C)NC(=O)OC(C)(C)C)C4OC(=O)OC4(C(OC(=O)c4ccccc4)C21)C3(C)C` (stereo not drawn) [SB-T-101134], the IC50 in data set [2] (A549, read-out: IC50, A549 (NSCLC)) turned out to be 0.6 nM; in data set [5], 22 nM; with A121 (ovarian cancer) (A121, read-out: IC50, A121 (ovarian)), 0.6 nM; in the data set on MCF7 (breast cancer) (MCF7, read-out: IC50, MCF7 (breast)), 0.6 nM; in the data set on HT-29 (colon cancer) (HT-29, read-out: IC50, HT-29 (colon)), 1.3 nM.

With `CC(=O)OC1C(=O)C2(C)C(O)CC3OCC3(OC(C)=O)C2C(OC(=O)c2ccccc2)C23OC(=O)OC2C(OC(=O)C(O)C(C=C(C)C)NC(=O)OC(C)(C)C)C(C)=C1C3(C)C` (stereo not drawn) [SB-T-101141], the IC50 in [2] (setting [6]) was 1.4 nM; in data set [5] (setting [10]) it was 36 nM; in the data set on A121 (ovarian cancer) (setting [7]), 1.5 nM; in the data set with MCF7 (breast cancer) (setting [8]) it was 3.3 nM; with HT-29 (colon cancer) (setting [9]) it was 2.4 nM.

As to `CCC(=O)OC1C(=O)C2(C)C(O)CC3OCC3(OC(C)=O)C2C(OC(=O)c2ccccc2)C23OC(=O)OC2C(OC(=O)C(O)C(C=C(C)C)NC(=O)OC(C)(C)C)C(C)=C1C3(C)C` (stereo not drawn) [SB-T-101142], the IC50 in data set [2] (setting [6]) worked out at 0.5 nM; in data set [5] (setting [10]), 21 nM; in the data set on A121 (ovarian cancer) (setting [7]) it was 0.7 nM; with MCF7 (breast cancer) (setting [8]), 0.1 nM; in the data set with HT-29 (colon cancer) (setting [9]), 0.6 nM.

On to `CC(=O)OC12COC1CC(O)C1(C)C(=O)C(OC(=O)C3CC3)C3=C(C)C(OC(=O)C(O)C(C=C(C)C)NC(=O)OC(C)(C)C)C4OC(=O)OC4(C(OC(=O)c4ccccc4)C21)C3(C)C` (stereo not drawn) [SB-T-101143], for which the IC50 was 0.5 nM in data set [2] (setting [6]); 24 nM in data set [5] (setting [10]); 0.5 nM in the data set with A121 (ovarian cancer) (setting [7]); 0.2 nM in the data set with MCF7 (breast cancer) (setting [8]); 1 nM in the data set on HT-29 (colon cancer) (setting [9]).

With `CC(=O)OC12COC1CC(O)C1(C)C(=O)C(OC(=O)N(C)C)C3=C(C)C(OC(=O)C(O)C(C=C(C)C)NC(=O)OC(C)(C)C)C4OC(=O)OC4(C(OC(=O)c4ccccc4)C21)C3(C)C` (stereo not drawn) [SB-T-101144], the IC50 turned out to be 0.6 nM in data set [2] (setting [6]); 22 nM in [5] (setting [10]); 0.7 nM in the data set with A121 (ovarian cancer) (setting [7]); 0.2 nM with MCF7 (breast cancer) (setting [8]); 1.2 nM in the data set with HT-29 (colon cancer) (setting [9]).

As to `COC(=O)OC1C(=O)C2(C)C(O)CC3OCC3(OC(C)=O)C2C(OC(=O)c2ccccc2)C23OC(=O)OC2C(OC(=O)C(O)C(C=C(C)C)NC(=O)OC(C)(C)C)C(C)=C1C3(C)C` (stereo not drawn) [SB-T-101146], the IC50 in data set [2] (setting [6]) was determined as 0.5 nM; in data set [5] (setting [10]), 38 nM; in the data set with A121 (ovarian cancer) (setting [7]), 0.6 nM; in the data set on MCF7 (breast cancer) (setting [8]) it was 0.3 nM; in the data set with HT-29 (colon cancer) (setting [9]), 0.7 nM.

On to `CC=CC(NC(=O)OC(C)(C)C)C(O)C(=O)OC1C(C)=C2C(OC(C)=O)C(=O)C3(C)C(O)CC4OCC4(OC(C)=O)C3C(OC(=O)c3ccccc3)C3(OC(=O)OC13)C2(C)C` (stereo not drawn) [SB-T-101151], for which the IC50 in data set [2] (setting [6]) is 0.4 nM; in [5] (setting [10]), 49 nM; with A121 (ovarian cancer) (setting [7]) it was 2.4 nM; in the data set with MCF7 (breast cancer) (setting [8]), 1.6 nM; with HT-29 (colon cancer) (setting [9]), 3 nM.

Take `CC(=O)OC1C(=O)C2(C)C(O)CC3OCC3(OC(C)=O)C2C(OC(=O)c2ccccc2)C23OC(=O)OC2C(OC(=O)C(O)C(NC(=O)OC(C)(C)C)c2ccco2)C(C)=C1C3(C)C` (stereo not drawn) [SB-T-101161]: the IC50 amounted to 0.5 nM in [2] (setting [6]); 58 nM in data set [5] (setting [10]); 0.4 nM in the data set with A121 (ovarian cancer) (setting [7]); 0.5 nM in the data set on MCF7 (breast cancer) (setting [8]); 0.6 nM with HT-29 (colon cancer) (setting [9]).

Values taken from patent US5705508A, “Anti-tumor compounds, pharmaceutical compositions, methods for preparation thereof and for treatment” (priority 1995, dated 1998).
